ChEMBL document CHEMBL1146712, “Synthesis and biological evaluation of [4-(2-phenylethenesulfonylmethyl)phenyl]-quinazolin-4-yl-amines as orally active anti-cancer agents” (2004)

Columns and labels:
[1] = tested on: U-251; test: Concentration required to inhibit growth of human CNS (U251) cell line; type: functional
[2] = tested on: NCI-H522 (Homo sapiens); test: Concentration required to inhibit growth of human lung (H522) cell line
[3] = tested on: OVCAR-8; test: Concentration required to inhibit growth of human ovarian (OVCAR8) cell line; type: functional
[4] = tested on: DU-145; test: In vitro inhibition of DU145 (human prostate cancer) cell growth.; type: functional
[5] = tested on: HT-29; test: Concentration required to inhibit growth of human colon (HT-29) cell line; type: functional
[6] = tested on: MCF7; test: Concentration required to inhibit growth of human breast (MCF-7) cell line; type: functional
[7] = tested on: PC-3; test: Concentration required to inhibit growth of human prostate (PC3) cell line; type: functional
[8] = tested on: SW-620; test: Concentration required to inhibit growth of human colon (SW620) cell line; type: functional
[9] = tested on: UACC-62; test: Concentration required to inhibit growth of human melanoma (UACC62) cell line; type: functional
[10] = tested on: SK-OV-3; test: Concentration required to inhibit growth of human ovarian (SK-OV3) cell line; type: functional
[11] = tested on: NCI/ADR-RES; test: in vitro inhibition of MCF-7/ADR (human breast cancer) cell growth.; type: functional
[12] = tested on: ACHN; test: Concentration required to inhibit growth of human renal (ACHN) cell line; type: functional
[13] = tested on: Mus musculus; test: (§1) Anticancer activity after implantation of HT-29 human adeno carcinoma xenograft in mice at a dose of 300 mg/kg; type: functional; design: reference not given here
[14] = tested on: Mus musculus; test: as §1; type: functional
[15] = tested on: Mus musculus; test: Anticancer activity after implantation of HT-29 human adeno carcinoma xenograft in mice at a dose of 300 mg/kg; 0/6; type: functional

GI50 [1]	GI50 [2]	GI50 [3]	GI50 [4]	GI50 [5]	GI50 [6]	GI50 [7]	GI50 [8]	GI50 [10]	GI50 [12]	Compound	GI50 [9]	GI50 [11]	Mean body weight [13]	inhibition in vivo at 300 mg/kg [14]	Mortality [15]
> 100 µM	27 µM	> 100 µM	3 µM	9 µM	32 µM	42 µM	94 µM			O=S(=O)(/C=C/c1ccc(O)cc1)Cc1ccc(Nc2ncnc3ccc(Br)cc23)cc1	28 µM				
> 100 µM	> 100 µM	> 100 µM	2 µM	> 100 µM	74 µM	> 100 µM	> 100 µM	5 µM	58 µM	O=S(=O)(/C=C/c1ccccc1)Cc1ccc(Nc2ncnc3ccccc23)cc1	> 100 µM	> 100 µM			
11 µM	8 µM	6 µM		24 µM	32 µM	9.5 µM	5 µM	50 µM	4 µM	COc1cc2ncnc(Nc3ccc(CS(=O)(=O)/C=C/c4ccc(Br)cc4)cc3)c2cc1OC	63 µM	72 µM			
100 µM	100 µM	48 µM		100 µM	100 µM	100 µM	100 µM	36 µM	66 µM	COc1cc2ncnc(Nc3ccc(CS(=O)(=O)/C=C/c4ccc(F)cc4)cc3)c2cc1OCCN1CCOCC1	100 µM				
30 µM	40 µM	15 µM		100 µM	32 µM	58 µM	55 µM	5 µM	16 µM	O=S(=O)(/C=C/c1ccc(C(F)(F)F)cc1F)Cc1ccc(Nc2ncnc3ccc(Br)cc23)cc1	22 µM	85 µM			
> 100 µM	> 100 µM	> 100 µM	> 100 µM	> 100 µM	> 100 µM	> 100 µM	> 100 µM	> 100 µM	> 100 µM	O=S(=O)(/C=C/c1ccc(F)cc1F)Cc1ccc(Nc2ncnc3cc(Cl)ccc23)cc1	> 100 µM	> 100 µM			
> 100 µM	> 100 µM	> 100 µM	> 100 µM	> 100 µM	> 100 µM	> 100 µM	> 100 µM	> 100 µM	> 100 µM	N#Cc1ccc(/C=C/S(=O)(=O)Cc2ccc(Nc3ncnc4ccccc34)cc2)cc1	> 100 µM	> 100 µM			
30 µM	13 µM	3 µM	1 µM	> 100 µM	46 µM	2 µM	45 µM			O=S(=O)(/C=C/c1ccc(Cl)cc1)Cc1ccc(Nc2ncnc3ccc(Br)cc23)cc1	15 µM				
2 µM		> 100 µM	37 µM	> 100 µM	15 µM	73 µM	> 100 µM	> 100 µM	17 µM	O=S(=O)(/C=C/c1ccc(F)cc1Cl)Cc1ccc(Nc2ncnc3cc(Cl)ccc23)cc1	72 µM	> 100 µM			
11 µM	32 µM	14 µM		11 µM	28 µM	35 µM	41 µM	22 µM	28 µM	O=S(=O)(/C=C/c1ccc(Cl)c(Cl)c1)Cc1ccc(Nc2ncnc3ccccc23)cc1	21 µM	22 µM			
100 µM	100 µM	100 µM		100 µM	100 µM	100 µM	100 µM	39 µM	100 µM	O=S(=O)(/C=C/c1ccc(C(F)(F)F)cc1F)Cc1ccc(Nc2ncnc3ccccc23)cc1	100 µM	100 µM			
> 100 µM	> 100 µM	38 µM	55 µM	> 100 µM	91 µM	42 µM	> 100 µM	1 µM	0.2 µM	O=S(=O)(/C=C/c1ccc(Br)cc1)Cc1ccc(Nc2ncnc3ccccc23)cc1	> 100 µM	> 100 µM			
> 100 µM		> 100 µM		> 100 µM	> 100 µM	> 100 µM	86 µM	69 µM	31 µM	O=S(=O)(/C=C/c1ccc(F)cc1F)Cc1ccc(Nc2ncnc3ccccc23)cc1	> 100 µM	> 100 µM			
0.3 µM	100 µM	1 µM	19 µM	2 µM	100 µM	14 µM	100 µM	14 µM	0.02 µM	O=S(=O)(/C=C/c1ccc(O)cc1)Cc1ccc(Nc2ncnc3ccccc23)cc1	100 µM				
49 µM	46 µM	> 100 µM	> 100 µM	73 µM	52 µM	43 µM	77 µM	54 µM	> 100 µM	O=S(=O)(/C=C/c1ccc(Cl)cc1)Cc1ccc(Nc2ncnc3ccccc23)cc1	13 µM	> 100 µM			
32 µM	100 µM	100 µM		100 µM	100 µM	100 µM	100 µM	2 µM	8 µM	O=S(=O)(/C=C/c1ccc(F)cc1F)Cc1ccc(Nc2ncnc3ccc(Br)cc23)cc1	3 µM	100 µM			
> 100 µM	> 100 µM	> 100 µM	> 100 µM	> 100 µM	> 100 µM	> 100 µM	> 100 µM	> 100 µM	> 100 µM	O=S(=O)(/C=C/c1ccc(C(F)(F)F)cc1F)Cc1ccc(Nc2ncnc3cc(Cl)ccc23)cc1	> 100 µM	> 100 µM			
4 µM		12 µM	1.3 µM	4 µM	54 µM	5 µM	7 µM	2.4 µM	3.4 µM	COc1cc2ncnc(Nc3ccc(CS(=O)(=O)/C=C/c4ccc(Cl)cc4Cl)cc3)c2cc1OCCCN1CCOCC1	23 µM	> 100 µM			
18 µM	> 100 µM	> 100 µM	4 µM	> 100 µM	3 µM	28 µM	> 100 µM	> 100 µM	0.2 µM	COc1cc2ncnc(Nc3ccc(CS(=O)(=O)/C=C/c4ccc(F)cc4)cc3)c2cc1OCCCN1CCOCC1	55 µM	3 µM			
38 µM	45 µM	5 µM	1 µM	17 µM	13 µM	7 µM	9 µM	3 µM	> 100 µM	CC(C)(C)c1cc(/C=C/S(=O)(=O)Cc2ccc(Nc3ncnc4ccccc34)cc2)cc(C(C)(C)C)c1O	6 µM	> 100 µM			
> 100 µM	> 100 µM	> 100 µM	> 100 µM	> 100 µM	> 100 µM	> 100 µM	> 100 µM	> 100 µM	> 100 µM	COc1cc2ncnc(Nc3ccc(CS(=O)(=O)/C=C/c4ccc(F)cc4)cc3)c2cc1OC	> 100 µM	> 100 µM			
53 µM	76 µM	> 100 µM		59 µM	25 µM	38 µM	> 100 µM	48 µM	8 µM	O=S(=O)(/C=C/c1ccc(Cl)cc1Cl)Cc1ccc(Nc2ncnc3cc(Cl)ccc23)cc1	32 µM	> 100 µM			
> 100 µM	> 100 µM	0.1 µM	17 µM	27 µM	14 µM	11 µM	5 µM			O=S(=O)(/C=C/c1ccc(Cl)c(Cl)c1)Cc1ccc(Nc2ncnc3ccc(Br)cc23)cc1	30 µM				
100 µM	100 µM	100 µM		100 µM	21 µM	100 µM	100 µM	44 µM	73 µM	O=S(=O)(/C=C/c1ccc(F)cc1Cl)Cc1ccc(Nc2ncnc3ccccc23)cc1	100 µM	66 µM			
11 µM	20 µM	2 µM	3 µM	10 µM	5 µM	34 µM	> 100 µM			O=S(=O)(/C=C/c1ccc(Br)cc1)Cc1ccc(Nc2ncnc3ccc(Br)cc23)cc1	> 100 µM				

Compound	GI50 [1]	GI50 [2]	GI50 [3]	GI50 [4]	GI50 [5]	GI50 [6]	GI50 [7]	GI50 [8]	GI50 [10]	GI50 [12]	GI50 [9]	GI50 [11]	Mean body weight [13]	inhibition in vivo at 300 mg/kg [14]	Mortality [15]
O=S(=O)(/C=C/c1ccc(F)cc1)Cc1ccc(Nc2ncnc3ccccc23)cc1	0.01 µM	13 µM	2 µM	0.3 µM	1 µM	16 µM	1 µM	100 µM	2 µM	0.01 µM	5 µM		5%	84%	0
